{"source": "patent US20060100170A1", "about": "“Isopycnic pharmaceutical formulation” (Agouron Pharmaceuticals, Inc., priority 2004, published 2006)", "key": {"[1]": {"assay": "Drug depot below Tenon's capsule vs below the conjunctiva, retinal drug concentration", "assay_type": "in vivo, New Zealand White rabbits", "conditions": "depot on outer surface of the sclera below Tenon's capsule; measured the day after the injection; rabbit eyes", "text": "The sclera and Tenon's capsule define the exterior surface of the globe of the eye. For treatment of ARMD, CNV, retinopathies, retinitis, uveitis, cystoid macular edema (CME), glaucoma, and other diseases or conditions of the posterior segment of the eye, it is preferable to dispose a depot of a specific quantity of an ophthalmically acceptable pharmaceutically active agent directly on the outer surface of the sclera and below Tenon's capsule. In addition, in cases of ARMD and CME it is most preferable to dispose the depot directly on the outer surface of the sclera, below Tenon's capsule, and generally above the macula. In a study using New Zealand White rabbits, a drug depot of 4,9(11)-Pregnadien-17α,21-diol-3,20-dione-21-acetate, an angiostatic steroid available from Steraloids, Inc. of Wilton, N.H., was disposed directly on the outer surface of the sclera, below the Tenon's capsule, and slightly posterior of the equator of the rabbit eyes. […] Given the fact that the Tenon's capsule of a New Zealand White rabbit is very thin, these beneficial results are highly unexpected. It is important to note that Tenon's capsule of the human eye is also very thin. […]"}, "[2]": {"assay": "Sucrose effect on content uniformity in the ready to use (RTU) composition", "assay_type": "physicochemical", "conditions": "ready to use composition made with sucrose from different vendors, FIG. 2", "text": "The concentrated sterile aqueous composition preferably comprises sucrose. The concentrated sterile aqueous composition comprises sucrose in an amount sufficient to form a stable aqueous composition of pharmaceutical agent represented by formula 1, typically about 40 to 80 weight percent sucrose based on the total weight of the composition. The concentrated sterile aqueous composition comprises sucrose in an amount ranging from a lower limit of 40, 45, 50, 55 or 60 or 65 weight percent, based on the total weight of the composition, to an upper limit of 70 or 75 or 80 weight percent, based on the total weight of the composition, with ranges from any upper limit to any lower limit being contemplated.\nFIG. 2 illustrates the sucrose effect on content uniformity in the ready to use (RTU) composition.\nThe vertical bars represent 95% Confidence Interval."}, "[3]": {"assay": "Particle size distribution following jet-milling", "assay_type": "physicochemical", "text": "The pharmaceutical agent is stable following gamma irradiation at 25 kGy and is stable following e-beam irradiation at 25 kGY. The particle size distribution, calculated by means well known in the art, following jet-milling (in microns) is as follows:\nd10=0.5; d50=1.5; and d90=3.5; wherein for example, d50 represents 50% of the pharmaceutical agent is 1.5 microns or less in size."}, "[4]": {"assay": "Stability of the drug substance to light, room temperature and irradiation", "assay_type": "physicochemical", "text": "The pharmaceutical agent is stable following gamma irradiation at 25 kGy and is stable following e-beam irradiation at 25 kGY. The particle size distribution, calculated by means well known in the art, following jet-milling (in microns) is as follows: […]"}}, "data": [{"smiles": "CC(=O)OCC(=O)[C@@]1(O)CC[C@H]2[C@@H]3CCC4=CC(=O)CC[C@]4(C)C3=CC[C@@]21C", "note": "[4,9(11)-Pregnadien-17α,21-diol-3,20-dione-21-acetate]", "values": [{"measurement": "concentration of the angiostatic steroid, averaged over the entire retina, relative to a depot below the conjunctiva but above the Tenon's capsule", "setting": "[1]", "result": "about ten times greater"}]}, {"smiles": "OC[C@H]1O[C@@](CO)(O[C@H]2O[C@H](CO)[C@@H](O)[C@H](O)[C@H]2O)[C@@H](O)[C@@H]1O", "note": "[Sigma, S3929 Lot 101K0105, sucrose]", "values": [{"measurement": "content uniformity", "setting": "[2]", "result": "best content uniformity"}]}, {"smiles": "Cc1cc(C(=O)Nc2cc(Nc3ccc4c(/C=C/c5ccccn5)n[nH]c4c3)ccc2F)n(C)n1", "note": "[pharmaceutical agent 1]", "values": [{"measurement": "particle size d10", "setting": "[3]", "result": 0.5, "unit": "microns"}, {"measurement": "particle size d50", "setting": "[3]", "result": 1.5, "unit": "microns"}, {"measurement": "particle size d90", "setting": "[3]", "result": 3.5, "unit": "microns"}, {"measurement": "light sensitivity", "setting": "[4]; drug substance", "result": "light insensitive"}, {"measurement": "stability following e-beam irradiation", "setting": "[4]; e-beam irradiation at 25 kGY", "result": "stable"}, {"measurement": "stability following gamma irradiation", "setting": "[4]; gamma irradiation at 25 kGy", "result": "stable"}, {"measurement": "stability at room temperature", "setting": "[4]; room temperature", "result": "stable"}]}]}
